{
  "source": "patent US10053443B2",
  "about": "“2-phenylbenzofuran derivatives, method for preparing the same and use of the same for treating inflammatory disease” (KOREA RESEARCH INSTITUTE OF BIOSCIENCE AND BIOTECHNOLOGY, priority 2014, dated 2018)",
  "key": {"[1]": {"test_system": "Raw 264.7 (ATCC TIB71) cells", "test": "Evaluation of cell survival rate of macrophages (MTT)", "assay_type": "cell-based, mouse", "conditions": "Raw 264.7, 10 μM, 24 hours", "protocol": "Raw 264.7 (ATCC TIB71) cells, the mouse derived macrophages', were inoculated in a 96-well plate containing DMEM (Dulbecco's modified Eagle medium; Welgene, Korea) supplemented with 10% FBS (Fetal Bovine Serum), 2 mM glutamine, penicillin (100 unit/ml), and streptomycin (100 μg/ml) at the density of 1×10^4 cells/well. The cells were cultured in 5% CO2 at 37° C. for 4 hours to attach the cells onto the plate. Next, the cells were treated with each sample at different concentrations, followed by further culture for 24 hours. To investigate the cell survival rate, 5 mg/ml of MTT (3-(4,5-dimethylthiazol-2-yl)-2,5-diphenyltetrazoliumbromide, Amresco, OH, USA) was distributed thereto (10 μl/well), followed by culture for 4 hours. Then, the supernatant was eliminated. Formazan reduced from MTT by mitochondria was dissolved in 100 μl of DMSO and then OD570 was measured. 0.2% DMSO was used for the negative control."}, "[2]": {"test_system": "Nitrogen Oxide (NO) generation", "test": "Inhibition of nitrogen oxide (NO) generation in LPS-treated Raw 264.7 cells (Griess)", "assay_type": "cell-based, mouse", "conditions": "Raw 264.7, LPS 500 ng/ml, 24 hours", "protocol": "Raw 264.7 (ATCC TIB71) cells were inoculated in a 96-well plate containing the same medium as used in Experimental Example 1 at the density of 1×10^5 cells/well. The cells were cultured in 5% CO2 at 37° C. for 4 hours to attach the cells onto the plate. The cells were treated with each sample at different concentrations, followed by further culture for 1 hour. […] were treated thereto at the final concentration of 500 ng/ml, followed by further culture for 24 hours. 100 μl of the supernatant was taken and transferred in a new plate, which was mixed with Griess reagent (a mixture of 1% sulfanilamide, 0.1% N-[1-naphthyl]-ethylenediamine dihydrochloride, and 5% phosphoric acid), followed by reaction for 10 minutes. Then, OD540 was measured. NO generation was quantified by using the sodium nitrite standard curve prepared from […] dissolved in the same medium at different concentrations. Considering the NO generation of the inflammation induced macrophages as 100%, the NO generation inhibition rate was calculated and presented in Table 7."}, "[3]": {"test_system": "interleukin-6 (IL-6) generation", "test": "Inhibition of interleukin-6 (IL-6) generation in LPS-treated Raw 264.7 cells (ELISA)", "assay_type": "cell-based, mouse", "conditions": "Raw 264.7, LPS treated; read-out: Grades of IC50 on IL-6 generation", "protocol": "Raw 264.7 cells were distributed by the same manner as described in Experimental Example <2-1>, and IL-6 included in the supernatant treated with each sample at different concentrations was measured by enzyme-linked immunosorbent assay (IL-6 ELISA kit, BD Bioscience, San Diego, Calif.).\nParticularly, 10-fold diluted supernatant was distributed in a 96-well plate on which IL-6 antibody was attached, followed by adhesion for 2 hours. The supernatant remaining after the adhesion was washed with a washing buffer. The detection antibody and HRP were adhered on the washed plate for 1 hour. The remaining antibody was washed. Color development was induced by using TMB substrate. The reaction was terminated with sulfuric acid solution. Then, OD450 was measured. IL-6 in the supernatant was quantified by using the standard curve made with the standard IL-6 included in the kit. IL-6 suppression rate was calculated by measuring the same concentration that could inhibit IL-6 generation up to 50% in the LPS treated group and the results are shown in Table 8."}, "[4]": {"test_system": "rheumatoid arthritis animal model", "conditions": "DBA/1 CIA mice, 30 mg/kg oral, FIGS. 11 and 12", "protocol": "(§1) Bovine type II collagen (100 μg/mouse, Hondrax, Seattle, USA) and complete Freund's adjuvant (Chondrex, Seattle, USA) were intradermally injected in the tail of […]. On day 21, 100 μg of bovine type II collagen was mixed with incomplete Freund's adjuvant (IFA), which was injected in the tail of each mouse once again to induce arthritis.\n(§2) The compound of Example 25 of the invention was dissolved in a solvent (10% DMAC+10% Tween 80 in PBS).\n(§3) Administration pathway: Oral administration Group (6 per group) • Vehicle control group (CIA group) • Dexamethasone (0.3 mg/kg)—positive control group • Example 25 compound group (30 mg/kg)"}, "TNF-alpha": {"test_system": "TNF-alpha", "conditions": "DBA/1 CIA mice, 30 mg/kg oral, FIG. 13", "protocol": "as §1, §2, §3\n(§4) ELISA was performed with the serum and foot to investigate whether or not the compound of the invention could suppress the generation of TNF-alpha and interleukin-6, the inflammatory cytokines known as the promoter of inflammation which is the common symptom of acute and chronic arthritis."}, "interleukin-6": {"test_system": "interleukin-6", "conditions": "DBA/1 CIA mice, 30 mg/kg oral, FIG. 14", "protocol": "as §1, §2, §3, §4"}},
  "data": [
    {"smiles": "COc1cc(CCCO)cc(CCc2cccc(C)c2)c1O", "note": "[Example 15, 4-(3-hydroxypropyl)-2-methoxy-6-(3-methylpenethyl)phenol]", "values": [
      {"measurement": "Grades of cell survival rate (%, in 10 μM)", "setting": "[1]", "result": "A (A: 90<A≤100)"},
      {"measurement": "Grades of NO generation inhibition rate (%)", "setting": "[2]", "result": "A (A: 35<A≤100)"},
      {"measurement": "IC50", "setting": "[3]", "result": "20 to 30", "unit": "µM"},
      {"measurement": "edema in the foot induced by collagen (clinical score)", "setting": "[4]", "result": "suppressed edema in the foot induced by collagen up to the level of the positive control"},
      {"measurement": "generation of TNF-alpha induced by collagen", "setting": "TNF-alpha", "result": "inhibited"},
      {"measurement": "generation of interleukin-6 induced by collagen", "setting": "interleukin-6", "result": "inhibited"}
    ]}
  ]
}
